Each structure is given as a SMILES string.

Molecule `*=NP(=NP(=NC(=*)Oc1ccccc1)(Oc1ccccc1)Oc1ccccc1)(Oc1ccccc1)Oc1ccccc1` (repeat unit) registered a glass transition temperature of 18.00 °C. Turning to `*=NP(=NP(=NC(=*)Oc1ccccc1C(F)(F)F)(Oc1ccccc1C(F)(F)F)Oc1ccccc1C(F)(F)F)(Oc1ccccc1C(F)(F)F)Oc1ccccc1C(F)(F)F` (repeat unit), the glass transition temperature is -20.00 °C. Regarding `*CC(*)(C)C(=O)OC1COC(CP(=O)(OCC)OCC)OC1` (repeat unit), the glass transition temperature came out at 101.50 °C.

In turn, `*CC(*)(C)C(=O)OCC#CO[Si](C)(C)C` (repeat unit) gave a glass transition temperature of 57.00 °C. Molecule `*CC(*)(C)C(=O)OCC#N` (repeat unit) showed a glass transition temperature of 91.00 °C. Then `*CC(*)(C)C(=O)OCC(=O)N1CCCC1` (repeat unit), with 144.00 °C; and `*CC(*)(C)C(=O)OCC(=O)c1ccccc1` (repeat unit), with 92.50 °C; and `*CC(*)(C)C(=O)OCC(F)(F)C(F)(F)C(F)(F)C(F)(F)C(F)(F)C(F)F` (repeat unit), with 12.50 °C. In the case of `*CC(*)(C)C(=O)OCC(F)(F)C(F)(F)C(F)(F)C(F)F` (repeat unit), the glass transition temperature turned out to be 47.00 °C.

The molecule `*CC(*)(C)C(=O)OCC(F)(F)C(F)(F)F` (repeat unit) gave a glass transition temperature of 77.00 °C.

In the case of `*CC(*)(C)C(=O)OCC(O)C1CC(C)(c2ccccc2)C1` (repeat unit), the glass transition temperature was 105.00 °C.

Consider `*CC(*)(C)C(=O)OCC(O)CO` (repeat unit), for which the glass transition temperature was 84.40 °C. `*CC(*)(C)C(=O)OCC1(C)COC(C)(C)OC1` (repeat unit) displayed a glass transition temperature of 108.00 °C. Then `*CC(*)(C)C(=O)OCC1CC(NC(=O)OC(C)(C)C)CN1C(=O)OC(C)(C)C` (repeat unit), with 127.00 °C; and `*CC(*)(C)C(=O)OCC1CCCO1` (repeat unit), with 105.00 °C. Then `*CC(*)(C)C(=O)OCC1COC(c2ccccc2)O1` (repeat unit), with 130.00 °C.

For `*CC(*)(C)C(=O)OCC1COCCOCCOCCOCCOC1` (repeat unit), the glass transition temperature worked out at 31.00 °C. Then `*CC(*)(C)C(=O)OCCC(F)(F)C(F)(F)C(F)(F)C(F)(F)C(F)(F)C(F)(F)C(F)(F)C(F)(F)F` (repeat unit), with 47.00 °C. Then `*CC(*)(C)C(=O)OCCC1CCN(CCCCCCOc2ccc(/N=N/c3ccc([N+](=O)[O-])cc3)cc2)CC1` (repeat unit), with 27.00 °C; and `*CC(*)(C)C(=O)OCCCC1CCCCC1` (repeat unit), with 60.00 °C. `*CC(*)(C)C(=O)OCCCCC(F)(F)C(F)(F)C(F)(F)C(F)(F)C(F)(F)C(F)(F)F` (repeat unit) had a glass transition temperature of 23.00 °C. The molecule `*CC(*)(C)C(=O)OCCCCC1CCCCC1` (repeat unit) came in with a glass transition temperature of 43.00 °C. In the case of `*CC(*)(C)C(=O)OCCCCCC(=O)Oc1ccc(OC(=O)c2ccc(OC)cc2)cc1` (repeat unit) it was 40.00 °C.

`*CC(*)(C)C(=O)OCCCCCC(=O)Oc1ccc(OC(=O)c2ccc(OCCCC)cc2)cc1` (repeat unit) displayed a glass transition temperature of 40.00 °C. In the case of `*CC(*)(C)C(=O)OCCCCCCC(F)(F)C(F)(F)C(F)(F)C(F)(F)F` (repeat unit) it was 23.00 °C; in that of `*CC(*)(C)C(=O)OCCCCCCCC` (repeat unit), -11.00 °C; in that of `*CC(*)(C)C(=O)OCCCCCCCCCCCC` (repeat unit), -47.90 °C. Then `*CC(*)(C)C(=O)OCCCCCCCCCCCOc1ccc(/C=N/c2ccc(C#N)cc2)cc1` (repeat unit), with 23.00 °C; and `*CC(*)(C)C(=O)OCCCCCCCCCCCn1c2ccccc2c2ccccc21` (repeat unit), with 31.00 °C; and `*CC(*)(C)C(=O)OCCCCCCCCCCOc1ccc(/N=N/c2ccc(C#N)cc2)cc1` (repeat unit), with 51.00 °C. On to `*CC(*)(C)C(=O)OCCCCCCCCCCOc1ccc(C#Cc2cc(C)c(/C=C/c3ccncc3)cc2C)cc1` (repeat unit), for which the glass transition temperature was determined as 65.40 °C. In the case of `*CC(*)(C)C(=O)OCCCCCCCCCCOc1ccc(OC(=O)c2ccc(OC)cc2)cc1` (repeat unit) it was 21.00 °C; in that of `*CC(*)(C)C(=O)OCCCCCCCCCCOc1ccc(OC(=O)c2ccc(OCCCCCC)cc2)cc1` (repeat unit), 41.00 °C; in that of `*CC(*)(C)C(=O)OCCCCCCCCCCOc1ccc(OC(=O)c2ccc(OCCCCCCCC)cc2)cc1` (repeat unit), 12.00 °C. In the case of `*CC(*)(C)C(=O)OCCCCCCCCCCOc1ccc2cc(C(=O)Oc3ccccc3)ccc2c1` (repeat unit), the glass transition temperature was determined as 24.00 °C.

`*CC(*)(C)C(=O)OCCCCCCCCCCn1c2ccccc2c2cc(/C=C(\C#N)c3ccc([N+](=O)[O-])cc3)ccc21` (repeat unit) showed a glass transition temperature of 40.00 °C. In the case of `*CC(*)(C)C(=O)OCCCCCCCCCCn1c2ccccc2c2cc(/C=C/C3=C(C#N)C(=C(C#N)C#N)OC3(C)C)ccc21` (repeat unit) it was 55.00 °C; in that of `*CC(*)(C)C(=O)OCCCCCCCCCCn1c2ccccc2c2cc(/N=N/c3ccc([N+](=O)[O-])cc3)ccc21` (repeat unit), 36.00 °C; in that of `*CC(*)(C)C(=O)OCCCCCCCCCCn1c2ccccc2c2cc(/N=N/c3ccc([N+](=O)[O-])cc3[N+](=O)[O-])ccc21` (repeat unit), 60.00 °C. Then `*CC(*)(C)C(=O)OCCCCCCCCCOc1ccc2cc(C(=O)Oc3ccccc3)ccc2c1` (repeat unit), with 18.00 °C; and `*CC(*)(C)C(=O)OCCCCCCCCOc1ccc(/N=N/c2ccc(C#N)cc2)cc1` (repeat unit), with 35.00 °C; and `*CC(*)(C)C(=O)OCCCCCCCCOc1ccc(C(=O)Oc2ccc(C(=O)/C=C/c3c(C)c4ccccc4n3CCCC)cc2)cc1` (repeat unit), with 69.00 °C.

Molecule `*CC(*)(C)C(=O)OCCCCCCN(C)c1ccc(/N=N/c2ccc(S(C)(=O)=O)cc2)cc1` (repeat unit) yielded a glass transition temperature of 100.00 °C. Then `*CC(*)(C)C(=O)OCCCCCCN1CCN(c2ccc(/N=N/c3ccc(C=C(C#N)C#N)cc3)cc2)CC1` (repeat unit), with 83.00 °C. `*CC(*)(C)C(=O)OCCCCCCOc1ccc(C(=O)Oc2ccc(/N=N/c3ccc(Br)cc3)c3ccccc23)cc1` (repeat unit) yielded a glass transition temperature of 46.00 °C. `*CC(*)(C)C(=O)OCCCCCCOc1ccc(C(=O)Oc2ccc(/N=N/c3ccc(F)cc3)c3ccccc23)cc1` (repeat unit): the glass transition temperature is 42.00 °C. In the case of `*CC(*)(C)C(=O)OCCCCCCOc1ccc(C(=O)Oc2ccc(/N=N/c3ccc(I)cc3)c3ccccc23)cc1` (repeat unit) it was 40.00 °C; in that of `*CC(*)(C)C(=O)OCCCCCCOc1ccc(C(=O)Oc2ccc(/N=N/c3ccccc3)c3ccccc23)cc1` (repeat unit), 46.00 °C. Then `*CC(*)(C)C(=O)OCCCCCCOc1ccc(C(=O)Oc2ccc(C(=O)/C=C/c3c(C)c4ccccc4n3C)cc2)cc1` (repeat unit), with 98.00 °C; and `*CC(*)(C)C(=O)OCCCCCCOc1ccc(C(=O)Oc2ccc(C(=O)/C=C/c3c(C)c4ccccc4n3CCCC)cc2)cc1` (repeat unit), with 85.00 °C. In the case of `*CC(*)(C)C(=O)OCCCCCCOc1ccc(C(=O)Oc2ccc(C)cc2)cc1` (repeat unit) it was 45.00 °C. `*CC(*)(C)C(=O)OCCCCCCOc1ccc(C(=O)Oc2ccc(OC)cc2)cc1OC` (repeat unit): the glass transition temperature was found to be 49.00 °C. Then `*CC(*)(C)C(=O)OCCCCCCOc1ccc(C(=O)Oc2ccc(OCCCC)cc2)cc1` (repeat unit), with 49.00 °C; and `*CC(*)(C)C(=O)OCCCCCCOc1ccc(C(=O)Oc2ccc3ccc(=O)oc3c2)cc1` (repeat unit), with 102.00 °C.

`*CC(*)(C)C(=O)OCCCCCCOc1ccc(OC(=O)c2ccc(OC)c(Br)c2)cc1` (repeat unit) had a glass transition temperature of 51.00 °C.

The molecule `*CC(*)(C)C(=O)OCCCCCCOc1ccc(OC(=O)c2ccc(OC)cc2)cc1` (repeat unit) displayed a glass transition temperature of 38.00 °C. In the case of `*CC(*)(C)C(=O)OCCCCCCOc1cccc(C(=O)Oc2ccc(C#N)cc2)c1` (repeat unit), the glass transition temperature stood at 38.00 °C. Then `*CC(*)(C)C(=O)OCCCCCCc1ccc(/C(C)=C/c2ccc(OC)cc2)cc1` (repeat unit), with 31.00 °C; and `*CC(*)(C)C(=O)OCCCCCOc1ccc(OC(=O)c2ccc(OC)cc2)cc1` (repeat unit), with 38.00 °C. For the molecule `*CC(*)(C)C(=O)OCCCCCn1c2ccccc2c2ccccc21` (repeat unit), the glass transition temperature was 91.00 °C. In the case of `*CC(*)(C)C(=O)OCCCCOc1ccc(/N=N/c2ccc(C#N)cc2)cc1` (repeat unit), the glass transition temperature was determined as 80.00 °C. Then `*CC(*)(C)C(=O)OCCCCOc1ccc(OC(=O)c2ccc(-c3ccc(OC)cc3)cc2)cc1` (repeat unit), with 77.00 °C; and `*CC(*)(C)C(=O)OCCCCOc1ccc(OC(=O)c2ccc(OCCCCCC)cc2)cc1` (repeat unit), with 34.00 °C; and `*CC(*)(C)C(=O)OCCCCl` (repeat unit), with 50.00 °C. Then `*N=P(N=P(N=S(*)(=O)NCCCC)(NCCCC)NCCCC)(NCCCC)NCCCC` (repeat unit), with -16.00 °C; and `*N=P(N=P(N=S(*)(=O)NCCCCCC)(NCCCCCC)NCCCCCC)(NCCCCCC)NCCCCCC` (repeat unit), with -18.00 °C.

Values taken from the PolyMetriX glass transition set.
